Measured values reported in PubChem BioAssay AID1963842 (Molecular Pharmacology Branch, DTP, NCI, 2024).

System: 677734-321-R-J1-PDC complex spheroid viability
Test: Anticancer human tumor 677734-321-R-J1-PDC patient-derived soft tissue sarcoma cell line growth inhibition [POLQ]
Details: for IC50: curve of first compound; for viability, T/C: stronger effect = lower value
Method in brief: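 PDC + HUVEC + MSC complex spheroids; POLQ inhibitors ± partner drugs; top conc. at/near clinical Cmax, else 10 microM (SN-38 1 microM), half-log dilutions; 37 degrees C, 5% CO2.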

[1] = second compound 0.0316 µM, first compound 0.0316 µM
[2] = second compound 0.0316 µM, first compound 0.1 µM
[3] = second compound 0.0316 µM, first compound 0.316 µM
[4] = second compound 0.0316 µM, first compound 1 µM
[5] = second compound 0.0316 µM, first compound 3.16 µM
[6] = second compound 0.0316 µM, first compound 10 µM
[7] = second compound 0.1 µM, first compound 0.0316 µM
[8] = second compound 0.1 µM, first compound 0.1 µM
[9] = second compound 0.1 µM, first compound 0.316 µM
[10] = second compound 0.1 µM, first compound 1 µM
[11] = second compound 0.1 µM, first compound 3.16 µM
[12] = second compound 0.1 µM, first compound 10 µM
[13] = second compound 0.316 µM, first compound 0.0316 µM
[14] = second compound 0.316 µM, first compound 0.1 µM
[15] = second compound 0.316 µM, first compound 0.316 µM
[16] = second compound 0.316 µM, first compound 1 µM
[17] = second compound 0.316 µM, first compound 3.16 µM
[18] = second compound 0.316 µM, first compound 10 µM
[19] = second compound 1 µM, first compound 0.0316 µM
[20] = second compound 1 µM, first compound 0.1 µM
[21] = second compound 1 µM, first compound 0.316 µM
[22] = second compound 1 µM, first compound 1 µM
[23] = second compound 1 µM, first compound 3.16 µM
[24] = second compound 1 µM, first compound 10 µM
[25] = second compound 3.16 µM, first compound 0.0316 µM
[26] = second compound 3.16 µM, first compound 0.1 µM
[27] = second compound 3.16 µM, first compound 0.316 µM
[28] = second compound 3.16 µM, first compound 1 µM
[29] = second compound 3.16 µM, first compound 3.16 µM
[30] = second compound 3.16 µM, first compound 10 µM
[31] = second compound 10 µM, first compound 0.0316 µM
[32] = second compound 10 µM, first compound 0.1 µM
[33] = second compound 10 µM, first compound 0.316 µM
[34] = second compound 10 µM, first compound 1 µM
[35] = second compound 10 µM, first compound 3.16 µM
[36] = second compound 10 µM, first compound 10 µM
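Further: spheroids exposed to compounds for one week.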
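Wherever viability, T/C is given: 100% = vehicle DMSO treated spheroids.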

## CCc1cc2c(N3CCc4c(cc(Cn5ccnc5)cc4-c4cn(C)nc4C(F)(F)F)C3=O)cc(C)nc2c(OC)n1 + COC1C(OC(N)=O)C(O)C(Oc2ccc3c(O)c(NC(=O)c4ccc(O)c(CC=C(C)C)c4)c(=O)oc3c2C)OC1(C)C
Second compound 0.0316 µM
  IC50: > 10 µM
Second compound 0.1 µM
  IC50: > 10 µM
Second compound 0.316 µM
  IC50: > 10 µM
Second compound 1 µM
  IC50: > 10 µM
Second compound 3.16 µM
  IC50: > 10 µM
Second compound 10 µM
  IC50: > 10 µM
[1]
  viability, T/C: 111%
[2]
  viability, T/C: 110%
[3]
  viability, T/C: 94.5%
[4]
  viability, T/C: 98.2%
[5]
  viability, T/C: 77.7%
[6]
  viability, T/C: 53.4%
[7]
  viability, T/C: 106%
[8]
  viability, T/C: 111%
[9]
  viability, T/C: 97.7%
[10]
  viability, T/C: 98.8%
[11]
  viability, T/C: 73.7%
[12]
  viability, T/C: 59.3%
[13]
  viability, T/C: 112%
[14]
  viability, T/C: 108%
[15]
  viability, T/C: 98.7%
[16]
  viability, T/C: 96.9%
[17]
  viability, T/C: 79.5%
[18]
  viability, T/C: 49.4%
[19]
  viability, T/C: 124%
[20]
  viability, T/C: 105%
[21]
  viability, T/C: 108%
[22]
  viability, T/C: 93.4%
[23]
  viability, T/C: 75.5%
[24]
  viability, T/C: 52.9%
[25]
  viability, T/C: 109%
[26]
  viability, T/C: 111%
[27]
  viability, T/C: 103%
[28]
  viability, T/C: 98.2%
[29]
  viability, T/C: 82%
[30]
  viability, T/C: 54.4%
[31]
  viability, T/C: 108%
[32]
  viability, T/C: 110%
[33]
  viability, T/C: 98.4%
[34]
  viability, T/C: 91.4%
[35]
  viability, T/C: 67.3%
[36]
  viability, T/C: 50.8%

## CCc1cc2c(N3CCc4c(cc(Cn5ccnc5)cc4-c4cn(C)nc4C(F)(F)F)C3=O)ccnc2c(OC)n1 + COC1C(OC(N)=O)C(O)C(Oc2ccc3c(O)c(NC(=O)c4ccc(O)c(CC=C(C)C)c4)c(=O)oc3c2C)OC1(C)C
Second compound 0.0316 µM
  IC50: > 10 µM
Second compound 0.1 µM
  IC50: > 10 µM
Second compound 0.316 µM
  IC50: > 10 µM
Second compound 1 µM
  IC50: > 10 µM
Second compound 3.16 µM
  IC50: > 10 µM
Second compound 10 µM
  IC50: > 10 µM
[1]
  viability, T/C: 111%
[2]
  viability, T/C: 108%
[3]
  viability, T/C: 105%
[4]
  viability, T/C: 106%
[5]
  viability, T/C: 88.7%
[6]
  viability, T/C: 62.5%
[7]
  viability, T/C: 108%
[8]
  viability, T/C: 110%
[9]
  viability, T/C: 109%
[10]
  viability, T/C: 104%
[11]
  viability, T/C: 92.2%
[12]
  viability, T/C: 62.6%
[13]
  viability, T/C: 117%
[14]
  viability, T/C: 105%
[15]
  viability, T/C: 98.4%
[16]
  viability, T/C: 98.7%
[17]
  viability, T/C: 84.8%
[18]
  viability, T/C: 64.6%
[19]
  viability, T/C: 113%
[20]
  viability, T/C: 103%
[21]
  viability, T/C: 96.1%
[22]
  viability, T/C: 100%
[23]
  viability, T/C: 83.5%
[24]
  viability, T/C: 58.6%
[25]
  viability, T/C: 117%
[26]
  viability, T/C: 101%
[27]
  viability, T/C: 108%
[28]
  viability, T/C: 97.5%
[29]
  viability, T/C: 93.1%
[30]
  viability, T/C: 63.6%
[31]
  viability, T/C: 112%
[32]
  viability, T/C: 106%
[33]
  viability, T/C: 109%
[34]
  viability, T/C: 102%
[35]
  viability, T/C: 81.6%
[36]
  viability, T/C: 65%

## COc1cc2cc(C(=O)CCC(=O)O)sc2cc1OC + COC1C(OC(N)=O)C(O)C(Oc2ccc3c(O)c(NC(=O)c4ccc(O)c(CC=C(C)C)c4)c(=O)oc3c2C)OC1(C)C
Second compound 0.0316 µM
  IC50: > 10 µM
Second compound 0.1 µM
  IC50: > 10 µM
Second compound 0.316 µM
  IC50: > 10 µM
Second compound 1 µM
  IC50: > 10 µM
Second compound 3.16 µM
  IC50: > 10 µM
Second compound 10 µM
  IC50: > 10 µM
[1]
  viability, T/C: 104%
[2]
  viability, T/C: 99.5%
[3]
  viability, T/C: 103%
[4]
  viability, T/C: 96.9%
[5]
  viability, T/C: 105%
[6]
  viability, T/C: 102%
[7]
  viability, T/C: 110%
[8]
  viability, T/C: 99.6%
[9]
  viability, T/C: 97.5%
[10]
  viability, T/C: 107%
[11]
  viability, T/C: 106%
[12]
  viability, T/C: 102%
[13]
  viability, T/C: 113%
[14]
  viability, T/C: 106%
[15]
  viability, T/C: 98.8%
[16]
  viability, T/C: 102%
[17]
  viability, T/C: 111%
[18]
  viability, T/C: 102%
[19]
  viability, T/C: 109%
[20]
  viability, T/C: 102%
[21]
  viability, T/C: 104%
[22]
  viability, T/C: 109%
[23]
  viability, T/C: 105%
[24]
  viability, T/C: 102%
[25]
  viability, T/C: 108%
[26]
  viability, T/C: 104%
[27]
  viability, T/C: 114%
[28]
  viability, T/C: 110%
[29]
  viability, T/C: 109%
[30]
  viability, T/C: 103%
[31]
  viability, T/C: 112%
[32]
  viability, T/C: 101%
[33]
  viability, T/C: 109%
[34]
  viability, T/C: 99%
[35]
  viability, T/C: 111%
[36]
  viability, T/C: 111%
